In the METLIN SMRT retention time set (Domingo-Almenara et al. 2019):

Experiment: gradient 5% acetonitrile 3 min, to 50% in 2 min, to 85% in 15 min, held 3 min, 100 µL/min
Conditions: column: Zorbax Extend-C18 2.1 x 50 mm; eluents: water / acetonitrile, 0.1% formic acid
Method in brief: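 Over 3 months, pure standards in mixtures of ~100 molecules were run by HPLC coupled to a quadrupole time-of-flight mass spectrometer in positive and negative ionization mode. The column was a Zorbax Extend-C18 (2.1 × 50 mm, 1.8 μm) at 100 μL/min, eluted with water and acetonitrile each holding 0.1% formic acid, with 40 μL dead and 900 μL dwell volumes. Retention time was determined from adduct peaks chosen by software and checked manually.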

RP-LC retention time	SMILES
569 s	COCCn1cc(CC(=O)N2CCN(c3ccccn3)CC2)c2cccnc21
1120 s	Cc1ccc(Cl)cc1NC(=O)N1CCCC1c1nc(-c2ccccc2C)no1 (configuration not stated)
705 s	CCc1ccc(NC(=O)Cn2c(C(C)C)nc3c(c2=O)CCN(Cc2ccccc2)C3)cc1
685 s	CC(=O)Nc1nc(-c2ccc3c(c2)NC(=O)C(C)O3)cs1 (configuration not stated)
770 s	CCCNC(=O)NC1CCN(c2nc3ccccc3n(CC)c2=O)CC1
769 s	CCN(CC)S(=O)(=O)c1ccc2c(c1)N(CC(=O)NCC1COCCO1)C(=O)C1CCCCN21 (configuration not stated)
586 s	Cc1nc2cc(N3CCCC(C(=O)NCc4ccc(N(C)C)cc4)C3)cnc2nc1C (configuration not stated)
1020 s	O=C(O)Cc1sc(Nc2ccc(Br)cc2)nc1-c1ccccc1
908 s	O=C(Cc1csc(-c2ccccc2F)n1)NCCc1c[nH]c2ccc(F)cc12
735 s	Cc1csc(C(=O)Nc2ccc(N3CCCN(C(=O)C4CC4)CC3)cc2)c1
582 s	CCN1CCN(c2nc(F)c(F)c(S(=O)(=O)CCN3C(=O)CCC3=O)c2F)CC1
1320 s	CCC(C)NC(=O)C1CCCN(c2nccnc2Sc2ccc(C)cc2)C1 (configuration not stated)
929 s	Cc1ccc(-c2noc(CNC(=O)C3CCC(=O)N3S(=O)(=O)c3ccc(C)cc3)n2)cc1 (configuration not stated)
760 s	O=C1CCCc2cc(S(=O)(=O)N3CCC(C(=O)NCc4ccccc4Cl)CC3)ccc2N1
866 s	COC(=O)c1ccc(NS(=O)(=O)c2ccc(-c3c(C)noc3C)cc2)cc1
978 s	COC(=O)c1cc(S(=O)(=O)N2CCCC2C(=O)Nc2ccc(F)c(Cl)c2)cn1C (configuration not stated)
512 s	Cc1cc(C)n(CCN2CCN(C(=O)Cn3cnc4ccccc43)CC2)n1
713 s	Cc1noc(C)c1CCNC(=O)CCCn1c2ccccc2c2cnn(C)c(=O)c21
655 s	COc1ccc(N2CCN(c3cc(C(=O)O)c4cc(NC(=O)CC(C)C)ccc4n3)CC2)cc1
716 s	COCCN1C(=O)CCc2cc(NC(=O)c3cncc(Br)c3)ccc21
1070 s	CCOC(=O)Nc1ccc2c(c1)N(CCC(C)C)C(=O)C(C)(C)CO2
885 s	O=c1c(=O)n(-c2ccccc2)ccn1Cc1nc(-c2cccc(Br)c2)no1

The remaining lines, values behind:

SMILES	RP-LC retention time
COc1ccccc1N1CCN(Cc2nc(-c3ccc(N4CCOCC4)nc3)no2)CC1	694 s
NC(=O)c1nc(-c2ccccc2F)n2c1CCCCC2	722 s
O=C(C1CCN(c2ncnc3c2nc2n3CCCCC2)CC1)N1CCN(c2ccccn2)CC1	592 s
Cc1nc(-c2csc(S(=O)(=O)N3CCC(C(=O)NCCN4CCOCC4)CC3)c2)no1	596 s
CC(C)c1nccn1C1CN(C(=O)COc2ccccc2)C1	596 s
Cc1cccc(S(=O)(=O)N2CCc3nc[nH]c3C2)c1	590 s
O=S(=O)(CCOc1ccccc1)N1CCN(c2ccccc2F)CC1	1010 s
Nc1ccc(S(=O)(=O)Nc2cnc3c(Cl)cccc3n2)cc1	719 s
O=C(Cc1c(Sc2ccccc2)[nH]c2ccccc12)N1CCN(c2ccccn2)CC1	679 s
CCOc1ccc(-c2ccc(=O)n(Cc3nc(-c4ccc(OC(C)C)cc4)no3)n2)cc1	826 s
O=C(CCc1nc(-c2ccc(N3CCCC3)cc2)no1)N1CCN(c2ncccn2)CC1	957 s
Cc1ccc(S(=O)(=O)CCc2noc(-c3sc(C)nc3C)n2)cc1	818 s
Nc1cc(C2CCN(C(=O)c3ccc4c(c3)OCO4)CC2)no1	651 s
Nc1nc(NCc2ccccc2Cl)ncc1[N+](=O)[O-]	778 s
C[C@H]1CN(C(=O)C2CCCC2)C[C@@H]1c1nc(-c2ccccc2)no1	1060 s
